Reference: patent US10760052B2, “Method of inhibiting tau phosphorylation” (priority 2012, dated 2020)
“And” between values parts separate entries of the source, which are not always exact repeats. Equal values may be shown once. Read-outs that look alike come from different tables or passages of the source.

Columns and labels:
[1] = biological target: VAKGL pentapeptide of filamin A (FLNA) of SEQ ID NO: 1 (Homo sapiens, UniProt P21333); assay: FITC-NLX-based FLNA screening assay (inhibition of FITC-naloxone binding to Bn-VAKGL on streptavidin plates); settings: for Percent binding inhibition, preliminary study: 100 nM frozen-stored FITC-NLX, average of two runs
mu opiate receptor (MOR) = biological target: T1, mu opiate receptor (MOR) (Rattus norvegicus, UniProt P33535); type: biochemical; settings: for Concentration of FLNA-Binding Compound as Agonist 0.1 μM / Concentration of FLNA-Binding Compound as Agonist 1 μM / Concentration of FLNA-Binding Compound as Agonist 1 μM + BFNA: [35S]GTPγS binding to Gαo in striatal membranes; for Concentration of FLNA-Binding Compound as Agonist 0.1 μM: compound 0.1 μM; for Concentration of FLNA-Binding Compound as Agonist 1 μM: compound 1 μM; for Concentration of FLNA-Binding Compound as Agonist 1 μM + BFNA: compound 1 μM plus 1 μM β-funaltrexamine (MOR antagonist); for MOR agonist activity ([35S]GTPγS binding), compound as agonist: average of two runs
T1 construct: from tissue; host or cells: striatum (membrane preparation)
T1 sequence (P33535 whole entry): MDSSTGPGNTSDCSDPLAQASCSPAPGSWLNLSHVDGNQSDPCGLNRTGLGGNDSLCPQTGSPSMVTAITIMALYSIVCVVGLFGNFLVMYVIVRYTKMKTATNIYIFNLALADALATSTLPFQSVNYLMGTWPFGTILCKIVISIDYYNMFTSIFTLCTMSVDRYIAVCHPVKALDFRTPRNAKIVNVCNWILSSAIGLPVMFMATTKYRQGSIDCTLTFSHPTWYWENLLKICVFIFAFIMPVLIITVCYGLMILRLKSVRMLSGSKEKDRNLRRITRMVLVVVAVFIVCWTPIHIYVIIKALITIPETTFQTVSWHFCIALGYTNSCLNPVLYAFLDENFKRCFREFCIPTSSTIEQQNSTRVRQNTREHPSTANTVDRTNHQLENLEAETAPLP

[2] = 0.01 μM FLNA-binding compound, 10 nM FITC-NLX
[3] = 0.1 μM FLNA-binding compound, 10 nM FITC-NLX
[4] = 1 μM FLNA-binding compound, 10 nM FITC-NLX

Structure (SMILES) | % DAMGO (0.1 μM) (mu opiate receptor (MOR)) [%] | % DAMGO (1 μM) (mu opiate receptor (MOR)) [%] | % DAMGO + BFNA (mu opiate receptor (MOR)) [%] | Concentration of FLNA-Binding Compound as Agonist 0.1 μM (mu opiate receptor (MOR)) [%] | Concentration of FLNA-Binding Compound as Agonist 1 μM (mu opiate receptor (MOR)) [%] | Concentration of FLNA-Binding Compound as Agonist 1 μM + BFNA (mu opiate receptor (MOR)) [%] | further results
COc1c2c(cc3c1C(CC(O)Cc1ccccc1C)N(C)CC3)OCO2 (centres unmarked) [Compound B0054] | 93.4 | 85.3 | 668.7 | 157.8 | 186.7 | 111.0 | Percent Binding Inhibition (FITC-NLX binding) [1, 2]: 25.6%; Percent Binding Inhibition (FITC-NLX binding) [1, 3]: 32.6%; Percent Binding Inhibition (FITC-NLX binding) [1, 4]: 43.3%
COc1c2c(cc3c1C(CC(=O)c1ccc(F)c(F)c1)[N+](C)(C)CC3)OCO2 (centres unmarked) [Compound B0003] | 59.9 | 47.4 | 29.0 | 103.0 | 131.1 | 18.6 | Percent Binding Inhibition (FITC-NLX binding) [1, 2]: 45.4%; Percent Binding Inhibition (FITC-NLX binding) [1, 3]: 52.9%; Percent Binding Inhibition (FITC-NLX binding) [1, 4]: 63.5%
O=S(=O)(c1ccc(OC(F)(F)F)cc1)N1CCOC12CCN(CC1CC1)CC2 [Compound 4] |  |  |  |  |  |  | Binding to FLNA (in words) ([1]; preliminary study): bound well to FLNA; MOR agonist activity ([35S]GTPγS binding), compound as agonist (mu opiate receptor (MOR); 0.1 μM, preliminary study): 133.9%; MOR agonist activity ([35S]GTPγS binding), compound as agonist (mu opiate receptor (MOR); 1 μM + βNFA, preliminary study): 49.5%; MOR agonist activity ([35S]GTPγS binding), compound as agonist (mu opiate receptor (MOR); 1 μM, preliminary study): 165.2%; MOR agonist activity (in words) (mu opiate receptor (MOR); preliminary study): not as potent a MOR agonist
C=CCN1CC[C@]23c4c5ccc(O)c4O[C@H]2C(=O)CC[C@]3(O)[C@H]1C5 [(+) NLX, (+)naloxone] |  |  |  |  |  |  | Percent binding inhibition, preliminary study ([1]; 0.1 nM compound): 22.7%; Percent binding inhibition, preliminary study ([1]; 1 nM compound): 22.8%; Percent binding inhibition, preliminary study ([1]; 10 nM compound): 23.1%; Percent binding inhibition, preliminary study ([1]; 100 nM compound): 22.8%; Percent binding inhibition, preliminary study ([1]; 1 μM compound): 39.8%
C=CCN1CC[C@]23c4c5ccc(O)c4O[C@H]2C(=O)CC[C@@]3(O)[C@H]1C5 [Naloxone, naloxone] |  |  |  |  |  |  | Percent Binding Inhibition (FITC-NLX binding) [1]: 39.87% and 46.29% and 50.91%
O=S(=O)(c1cccs1)N1CCC2(CC1)OCCN2S(=O)(=O)c1cccs1 [Compound C0141M] | 109.9 | 105.8 | 121.9 | 161.5 | 213.9 | 47.9 | 
Cc1ccc(S(=O)(=O)N2CCC3(CC2)OCCN3S(=O)(=O)c2ccc(C)cc2)cc1 [Compound C0001] | 75.2 | 66.6 | 52.9 | 129.3 | 184.3 | 33.9 | 
CC(=O)c1ccc(S(=O)(=O)N2CCC3(CC2)NCCS3)cc1 [Compound C0060] | 114.8 | 93.9 | 327.0 |  |  |  | [35S]GTPγS binding, FLNA-Binding Compound as Agonist at 0.1 μM (mu opiate receptor (MOR); 0.1 μM compound, striatal membranes, Series C-2): 166.5%; [35S]GTPγS binding, FLNA-Binding Compound as Agonist at 1 μM + BFNA (mu opiate receptor (MOR); 1 μM compound + 1 μM β-FNA (selective MOR antagonist), Series C-2): 143.9%; [35S]GTPγS binding, FLNA-Binding Compound as Agonist at 1 μM (mu opiate receptor (MOR); 1 μM compound, striatal membranes, Series C-2): 218.9%
CC1CN(CC(O)COc2ccc(Br)c(F)c2)CC(C)O1 (centres unmarked) [Compound A0041] | 108.4 | 102.8 | 68.5 | 212.7 | 283.6 | 50.6 | 
CC1CCC(C(C)C)C(OCC(O)CN2CCc3ccccc3C2)C1 (centres unmarked) [Compound A0040] | 23.5 | 54.0 | 22.6 | 46.1 | 149.0 | 16.7 | 
O=S(=O)(c1ccc(OC(F)(F)F)cc1)N1CCC2(CC1)OCCN2S(=O)(=O)c1ccc(OC(F)(F)F)cc1 [Compound C0006] | 70.6 | 73.8 | 7.2 | 121.5 | 204.0 | 4.6 | 
O=S(=O)(c1ccc(F)cc1)N1CCC2(CC1)OCCN2S(=O)(=O)c1ccc(F)cc1 [Compound C0029] | 91.2 | 113.1 | 37.8 | 175.4 | 308.8 | 16.6 | 
COc1ccc(OCC(O)CN2CCc3ccccc3C2)cc1 (centres unmarked) [Compound A0053] | 46.5 | 47.5 | 46.2 | 78.5 | 118.2 | 15.1 | 
COc1cc(C(=O)CC2c3c(cc4c(c3OC)OCO4)CC[N+]2(C)C)cc(OC)c1OC (centres unmarked) [Compound B0037] | 76.5 | 80.4 | 325.8 | 119.8 | 186.0 | 106.2 | 
COc1ccccc1CCC(=O)CC1c2c(cc3c(c2OC)OCO3)CC[N+]1(C)C (centres unmarked) [Compound B0045] | 82.6 | 83.4 | 257.1 | 129.3 | 193.1 | 83.8 | 
CCCCc1ccc(S(=O)(=O)N2CCC3(CC2)OCCN3S(=O)(=O)c2ccc(CCCC)cc2)cc1 [Compound C0030] | 96.0 | 98.0 | 291.4 | 150.3 | 226.8 | 95.0 | 
COc1c2c(cc3c1C(CC(O)CCc1ccccc1)N(C)CC3)OCO2 (centres unmarked) [Compound B0051] | 68.4 | 76.7 | 263.9 | 115.6 | 167.9 | 43.8 | 
COc1ccc(CCC(=O)CC2c3c(cc4c(c3OC)OCO4)CC[N+]2(C)C)cc1OC (centres unmarked) [Compound B0042] | 39.6 | 42.3 | 163.9 | 69.9 | 107.5 | 43.1 | 
CC1CN(CC(O)COc2cccc(N(C)C)c2)CC(C)O1 (centres unmarked) [Compound A0042] | 75.2 | 84.5 | 121.1 | 147.5 | 233.1 | 89.5 | 
COCOc1ccc(C(=O)CC2c3c(cc4c(c3OC)OCO4)CC[N+]2(C)C)cc1C (centres unmarked) [Compound B0041] | 39.3 | 47.2 | 128.5 | 61.6 | 109.3 | 41.9 | 
CC1CCC(C(C)C)C(OCC(O)CN2CCCCC2=O)C1 (centres unmarked) [Compound A0036] | 73.4 | 60.7 | 85.5 | 144.1 | 167.5 | 63.2 | 
